The record followed here is patent publication US20180305332A1, “Bispiperidinyl Derivatives as Liver X Receptor Beta Agonists, Compositions, and Their Use” (Merck Sharp & Dohme Corp., priority 2015, published 2018).

Assay [1] deals with T1, GST tagged LXRalpha LBD (ligand binding domain) (Homo sapiens, UniProt Q13133).
T1 construct: purchased Invitrogen pv4655
T1 sequence (Q13133 209-447 limits assumed): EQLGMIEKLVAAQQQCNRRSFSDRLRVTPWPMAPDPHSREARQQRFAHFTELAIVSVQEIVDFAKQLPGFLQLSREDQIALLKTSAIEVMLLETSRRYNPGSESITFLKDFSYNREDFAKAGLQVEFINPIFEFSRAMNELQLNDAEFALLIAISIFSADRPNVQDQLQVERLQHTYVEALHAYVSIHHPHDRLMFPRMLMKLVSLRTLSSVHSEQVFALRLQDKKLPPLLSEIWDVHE
In words: LanthaScreen TR-FRET Liver X Receptor Coactivator Assay, LXR alpha-LBD. The class given is biochemical. As to conditions: relative to reference T0901317; for EC50 / LXR alpha IP (nM): Inflection Point (potency), co-activator recruitment; for EC50: read-out: LXR alpha IP; for Emax: activity at max dose (efficacy), read-out: LXR alpha act @ max dose (%). In short, it runs like this: (§1)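 Compound-induced coactivator recruitment measured by TR-FRET between a terbium anti-GST antibody bound to the GST-LBD (LXRα or LXRβ, human) and a fluorescein coactivator peptide, after incubation at room temperature. Potency (inflection point) and efficacy (Emax) referenced to T0901317.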

The target in assay [2] is T2, GST tagged LXRbeta LBD (ligand binding domain) (Homo sapiens, UniProt P55055).
T2 construct: purchased Invitrogen pv4658.pps
T2 sequence (P55055 222-460 limits assumed): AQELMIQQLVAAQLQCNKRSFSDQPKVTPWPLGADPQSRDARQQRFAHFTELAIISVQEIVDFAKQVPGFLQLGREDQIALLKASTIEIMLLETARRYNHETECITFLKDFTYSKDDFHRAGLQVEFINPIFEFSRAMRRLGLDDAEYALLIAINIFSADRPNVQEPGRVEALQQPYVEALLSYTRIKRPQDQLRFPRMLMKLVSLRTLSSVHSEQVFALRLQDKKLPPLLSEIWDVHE
In words: LanthaScreen TR-FRET Liver X Receptor Coactivator Assay, LXR beta-LBD. The assay is classed as biochemical. As to conditions: relative to reference T0901317; for EC50: Inflection Point (potency), co-activator recruitment, read-out: LXR beta IP; for Emax: activity at max dose (efficacy), read-out: LXR beta act @ max dose (%). A digest of the protocol: as §1

On to `O=C(c1ccc(N2CCC(C3CCN(C(=O)[C@](O)(c4ccccc4)C(F)(F)F)CC3)CC2)cc1Cl)N1CCC[C@@H]1CO` [Example E-23, (2R)-3-[1′-(3-chloro-4-{[(2R)-2-(hydroxymethyl)pyrrolidin-1-yl]carbonyl}phenyl)-4,4′-bipiperidin-1-yl]-1,1,1-trifluoro-3-oxo-2-phenylpropan-2-ol], for which the figures for the EC50 in assay [1] and in assay [2] were 1780 nM and 125 nM, respectively. Further, the Emax was 25% in assay [1] and 72% in assay [2].
Consider `O=C(c1ccc(N2CCC(C3CCN(C(=O)[C@](O)(c4ccccc4)C(F)(F)F)CC3)CC2)cc1Cl)N1CCC(O)C1` (stereo partly drawn) [Example E-24, 1-[(2-chloro-4-{1′-[(2R)-3,3,3-trifluoro-2-hydroxy-2-phenylpropanoyl]-4,4′-bipiperidin-1-yl}phenyl)carbonyl]pyrrolidin-3-ol], for which the EC50 in assay [1] turned out to be 3090 nM; in assay [2] it was 323 nM. Besides, the Emax in assay [1] was found to be 27%; in assay [2], 76%.
For `CC1CCCN1C(=O)c1ccc(N2CCC(C3CCN(C(=O)[C@](O)(c4ccccc4)C(F)(F)F)CC3)CC2)cc1Cl` (stereo partly drawn) [Example E-25, (2R)-3-(1′-{3-chloro-4-[(2-methylpyrrolidin-1-yl)carbonyl]phenyl}-4,4′-bipiperidin-1-yl)-1,1,1-trifluoro-3-oxo-2-phenylpropan-2-ol], in assay [1], the EC50 turned out to be 769 nM and the Emax was determined as 15%. In assay [2], the EC50 worked out at 332 nM and the Emax came out at 88%.
Take `O=C(c1ccc(N2CCC(C3CCN(C(=O)[C@](O)(c4ccccc4)C(F)(F)F)CC3)CC2)cc1Cl)N1CC[C@H](F)C1` [Example E-26, (2R)-3-[1′-(3-chloro-4-{[(3S)-3-fluoropyrrolidin-1-yl]carbonyl}phenyl)-4,4′-bipiperidin-1-yl]-1,1,1-trifluoro-3-oxo-2-phenylpropan-2-ol]: in assay [1], the EC50 turned out to be 1450 nM and the Emax came out at 25%. In assay [2], the EC50 worked out at 279 nM and the Emax amounted to 92%.
As for `CC1CCC(C)N1C(=O)c1ccc(N2CCC(C3CCN(C(=O)[C@](O)(c4ccccc4)C(F)(F)F)CC3)CC2)cc1Cl` (stereo partly drawn) [Example E-27, (2R)-3-(1′-{3-chloro-4-[(2,5-dimethylpyrrolidin-1-yl)carbonyl]phenyl}-4,4′-bipiperidin-1-yl)-1,1,1-trifluoro-3-oxo-2-phenylpropan-2-ol], in assay [1], the “LXR alpha IP (nM)” value is recorded as “NO IP” and the Emax was 0%. Further, in assay [2], the EC50 was determined as 53 nM and the Emax came to 58%.
For `CC1(C)CCN(C(=O)c2ccc(N3CCC(C4CCN(C(=O)[C@](O)(c5ccccc5)C(F)(F)F)CC4)CC3)cc2Cl)C1` [Example E-28, (2R)-3-(1′-{3-chloro-4-[(3,3-dimethylpyrrolidin-1-yl)carbonyl]phenyl}-4,4′-bipiperidin-1-yl)-1,1,1-trifluoro-3-oxo-2-phenylpropan-2-ol], in that order: “NO IP”, 15%, 200 nM and 57%.
For `CCC1CCN(C(=O)c2ccc(N3CCC(C4CCN(C(=O)[C@](O)(c5ccccc5)C(F)(F)F)CC4)CC3)cc2Cl)C1` (stereo partly drawn) [Example E-29, (2R)-3-(1′-{3-chloro-4-[(3-ethylpyrrolidin-1-yl)carbonyl]phenyl}-4,4′-bipiperidin-1-yl)-1,1,1-trifluoro-3-oxo-2-phenylpropan-2-ol], in that order: “NO IP”, 13%, 383 nM and 63%.
Consider `CCC1CCCN1C(=O)c1ccc(N2CCC(C3CCN(C(=O)[C@](O)(c4ccccc4)C(F)(F)F)CC3)CC2)cc1Cl` (stereo partly drawn) [Example E-30, (2R)-3-(1′-{3-chloro-4-[(2-ethylpyrrolidin-1-yl)carbonyl]phenyl}-4,4′-bipiperidin-1-yl)-1,1,1-trifluoro-3-oxo-2-phenylpropan-2-ol], for which, in assay [1], the EC50 is 1520 nM and the Emax came out at 15%. For the same compound, in assay [2], the EC50 was determined as 143 nM and the Emax came to 74%.
The like results for `O=C1CCN(C(=O)c2ccc(N3CCC(C4CCN(C(=O)[C@](O)(c5ccccc5)C(F)(F)F)CC4)CC3)cc2Cl)C1` [Example E-31] were, in that order, 2990 nM, 28%, 182 nM and 79%.
For the compound `COC(=O)C1CN(C(=O)c2ccc(N3CCC(C4CCN(C(=O)[C@](O)(c5ccccc5)C(F)(F)F)CC4)CC3)cc2Cl)C1` [Example E-32, methyl 1-[(2-chloro-4-{1′-[(2R)-3,3,3-trifluoro-2-hydroxy-2-phenylproanoyl]-4,4′-bipiperidin-1-yl}phenyl)carbonyl]azetidine-3-carboxylate], in assay [1], the EC50 is 2260 nM and the Emax was 22%. Besides, in assay [2], the EC50 came to 144 nM and the Emax turned out to be 57%.
For `CC(C)N(C)C(=O)c1ccc(N2CCC(C3CCN(C(=O)[C@](O)(c4ccccc4)C(F)(F)F)CC3)CC2)cc1Cl` [Example E-33, 2-chloro-N-methyl-N-(1-methylethyl)-4-{1′-[(2R)-3,3,3-trifluoro-2-hydroxy-2-phenylpropanoyl]-4,4′-bipiperidin-1-yl}benzamide], in that order: 893 nM, 24%, 71 nM and 95%.
In the case of `O=C(c1ccc(N2CCC(C3CCN(C(=O)[C@](O)(c4ccccc4)C(F)(F)F)CC3)CC2)cc1Cl)N1CC(F)(F)C1` [Example E-34, (2R)-3-(1′-{3-chloro-4-[(3,3-difluoroazetidin-1-yl)carbonyl]phenyl}-4,4′-bipiperidin-1-yl)-1,1,1-trifluoro-3-oxo-2-phenylpropan-2-ol], in assay [1], the “LXR alpha IP (nM)” value is recorded as “NO IP” and the Emax was determined as 28%. In assay [2], the EC50 was 450 nM and the Emax is 83%.
For `COC1CN(C(=O)c2ccc(N3CCC(C4CCN(C(=O)[C@](O)(c5ccccc5)C(F)(F)F)CC4)CC3)cc2Cl)C1` [Example E-35, (2R)-3-(1′-{3-chloro-4-[(3-methoxyazetidin-1-yl)carbonyl]phenyl}-4,4′-bipiperidin-1-yl)-1,1,1-trifluoro-3-oxo-2-phenylpropan-2-ol], in assay [1], the EC50 was 2460 nM and the Emax is 19%. Also, in assay [2], the EC50 was found to be 364 nM and the Emax is 57%.
For `O=C(c1ccc(N2CCC(C3CCN(C(=O)[C@](O)(c4ccccc4)C(F)(F)F)CC3)CC2)cc1Cl)N1CC(O)C1` [Example E-36, 1-[(2-chloro-4-{1′-[(2R)-3,3,3-trifluoro-2-hydroxy-2-phenylpropanoyl]-4,4′-bipiperidin-1-yl}phenyl)carbonyl]azetidin-3-ol], in that order: 3820 nM, 23%, 453 nM and 74%.
For the compound `O=C(c1ccc(N2CCC(C3CCN(C(=O)[C@](O)(c4ccccc4)C(F)(F)F)CC3)CC2)cc1Cl)N1CCCC2(CC2)C1` [Example E-37, (2R)-3-{1′-[4-(5-azaspiro[2.5]oct-5-ylcarbonyl)-3-chlorophenyl]-4,4′-bipiperidin-1-yl}-1,1,1-trifluoro-3-oxo-2-phenylpropan-2-ol], in assay [1], the “LXR alpha IP (nM)” value is “NO IP” and the Emax was found to be 5%. Moreover, in assay [2], the EC50 came to 216 nM and the Emax came to 70%.
Regarding `CC1CCCN(C(=O)c2ccc(N3CCC(C4CCN(C(=O)[C@](O)(c5ccccc5)C(F)(F)F)CC4)CC3)cc2Cl)C1` (stereo partly drawn) [Example E-38, (2R)-3-(1′-{3-chloro-4-[(3-methylpiperidin-1-yl)carbonyl]phenyl}-4,4′-bipiperidin-1-yl)-1,1,1-trifluoro-3-oxo-2-phenylpropan-2-ol], in assay [1], the “LXR alpha IP (nM)” value is listed as “NO IP” and the Emax turned out to be 0%. Besides, in assay [2], the EC50 is 276 nM and the Emax worked out at 57%.
For the compound `CC(C)(C)OC(=O)NCC1CN(C(=O)c2ccc(N3CCC(C4CCN(C(=O)[C@](O)(c5ccccc5)C(F)(F)F)CC4)CC3)cc2Cl)C1` [Example E-39, tert-butyl ({1-[(2-chloro-4-{1′-[(2R)-3,3,3-trifluoro-2-hydroxy-2-phenylpropanoyl]-4,4′-bipiperidin-1-yl}phenyl)carbonyl]azetidin-3-yl}methyl)carbamate], in assay [1], the EC50 came to 1430 nM and the Emax was 43%. In assay [2], the EC50 was found to be 141 nM and the Emax was 99%.
Turning to `O=C(c1ccc(N2CCC(C3CCN(C(=O)[C@](O)(c4ccccc4)C(F)(F)F)CC3)CC2)cc1Cl)N1CC(n2cccn2)C1` [Example E-40, (2R)-3-[1′-(3-chloro-4-{[3-(1H-pyrazol-1-yl)azetidin-1-yl]carbonyl}phenyl)-4,4′-bipiperidin-1-yl]-1,1,1-trifluoro-3-oxo-2-phenylpropan-2-ol], in assay [1], the “LXR alpha IP (nM)” value was “NO IP” and the Emax amounted to 39%. Besides, in assay [2], the EC50 turned out to be 297 nM and the Emax is 52%.
